Tested on: MM1.S cells, merged BRD4/JQ1 genomic regions
Test: Specificity analysis: overlap between JQ1 Chem-Seq and BRD4 ChIP-Seq data
Type: binding, human
Description: Chemical crosslinking was terminated by addition of TRIS buffer, pH 7.5, to a final concentration of 300 mM TRIS. Cells were harvested using a silicon scraper, centrifuged and the derived pellets washed three times with PBS. Cell nuclei were prepared as follows: cells were lysed in 50 mM HEPES, pH 7.5, 140 mM NaCl, 1 mM EDTA, 10% Glycerol, 0.5% NP-40, 0.25% Triton X-100 plus protease inhibitor cocktail ‘complete’ (Roche), and cell nuclei were washed once with 10 mM Tris-HCL, pH 8.0, 200 mM NaCl, 1 mM EDTA, 0.5 mM EGTA and protease inhibitors. […] Finally, purified DNA fragments were massively parallel sequenced and the sequencing data analyzed as described (33). […]
All ChIP-Seq and Chem-seq datasets were aligned using Bowtie (version 0.12.2) (35) to build version NCBI36/HG18 of the human genome. […] To obtain the normalized read density of ChIP-Seq datasets in any region, ChIP-Seq reads aligning to the region were extended automatically by MACS and the density of reads per basepair (bp) was calculated. The density of reads in each region was normalized to the total number of million mapped reads producing read density in units of reads per million mapped reads per by (rpm/bp).
Chem-Seq and ChIP-Seq data was analyzed to identify genomic regions with substantial JQ 1 Chem-Seq signal but no significant BRD4 ChIP-Seq signal, reasoning these sites might represent off-target interactions of JQ1. […]

SMILES: Cc1sc2c(c1C)C(c1ccc(Cl)cc1)=N[C@@H](CC(=O)OC(C)(C)C)c1nnc(C)n1-2 [JQ1]
- Off-target interaction (JQ1 Chem-Seq signal at regions of the genome without BRD4) (MM1.S cells, GLM differential binding analysis): no identifiable off-target interaction
- Genomic regions with significant differences in JQ1 Chem-Seq and BRD4 ChIP-Seq signals (out of 25,060 merged regions, FDR<=0.25, MM1.S cells): 10 regions
